In paper PMC2912373, “Low-Density Lipoprotein Receptor-Related Protein 1 (LRP1) Mediates Neuronal Aβ42 Uptake and Lysosomal Trafficking” (PLoS ONE, 2010):

Legend:
[1] = tested on: N2a-pcDNA3 cells; test: Binding/endocytosis of FAM-Aβ42, confocal microscopy; type: cell-based, mouse; conditions: 5 µM bound 1 h at 4°C, 37°C for 8 h
From the text: To test whether the endocytic activity of LRP1 mediates the uptake of Aβ42 and its accumulation within neurons, we analyzed the uptake of fluorescently labeled Aβ42 in control N2a cells and in N2a cells that overexpress a LRP1 minireceptor, mLRP4. This minireceptor contains the fourth ligand-binding domain of LRP1 and is capable of binding several LRP1 ligands with endocytic properties identical to the full-length LRP1 [35]. We generated stable N2a-mLRP4 and N2a-pcDNA3 cell lines and characterized them for total mLRP4 expression levels by Western blot and FACS (Fig. 1). […] To determine if mLRP4 reached the plasma membrane after synthesis, we analyzed cell surface levels of mLRP4 by FACS in non-permeabilized cells. […] To quantify the amount of internalized RAP, we performed FACS analysis of similarly treated cultures. […] Cells were then warmed to 37°C for different periods of time to allow ligand internalization, and analyzed by confocal microscopy as described in the Experimental Procedures section. […]
Figure 1 LRP1 minireceptor increases the uptake of Aβ42 in N2a-mLRP4 cells. A, cell lysates from N2a cells stably expressing LRP1 minireceptor (N2a-mLRP4) or empty pcDNA3 vector (N2a-pcDNA3) were analyzed by 7.5% SDS-PAGE and Western blotted with anti-HA or anti-LRP1 antibodies. […]

[2] = tested on: N2a-mLRP4 cells; test: Co-localization of internalized FAM-Aβ42 with LysoTracker, confocal microscopy; type: cell-based, mouse
Procedure: To determine whether internalized Aβ42 is accumulated over time, we performed continuous feeding experiments of FAM-Aβ42 in N2a-pcDNA3 and N2a-mLRP4 cells. The steady-state levels and localization of Aβ42 were determined by flow cytometry and confocal microscopy, respectively (Fig. 2). Cells were incubated with 500 nM FAM-Aβ42 at 37°C for 24, 48 or 72 h and the content of fluorescence per cell was quantified by FACS and presented as a percentage of the levels in N2a-pcDNA3 at each time point (Fig. 2A). […] Therefore, we analyzed the subcellular localization of internalized FAM-Aβ42 by confocal microscopy in N2a cells treated as before and analyzed co-localization with lysosomes. For the visualization of acidic organelles, a brief incubation with LysoTracker Red at the end of the experiment was included (Fig. 2B). After 24 h of incubation, a small amount of cell-associated Aβ42 can be detected in N2a-mLRP4 cells.
Figure 2 Increased accumulation of intracellular Aβ42 within lysosomes in LRP1 minireceptor-expressing cells. A, increased Aβ42 accumulation in LRP1 minireceptor-expressing cells. N2a-mLRP4 and N2a-pcDNA3 cells were treated with 500 nM of FAM-Aβ42 at 37°C for 24, 48 and 72 h, and steady-state levels of intracellular Aβ42 were determined by flow cytometric analyses of pronase-treated cells as described in the Experimental Procedures. […] B, increased co-localization of intracellular Aβ42 and lysosomes in N2a-mLRP4 cells. N2a-pcDNA3 and N2a-mLRP4 cells were grown in glass chamber slides and treated with 500 nM of FAM-Aβ42 at 37°C for 24, 48 and 72 h. Lysosomes were labeled with LysoTracker 30 min before the end of each incubation. Cells were then fixed and analyzed by confocal microscopy.
For the imaging experiments, stable N2a cells were plated into an 8-well chambered coverglass at 16,250 cells/cm^2 with one independent chambered coverglass for each time point, and cells were grown overnight. […] Cells were then fixed and analyzed by a confocal laser scanning microscope (Fluoview 500, Olympus) using a 40x objective lens. […]

Substance: FAM-Aβ42: FAM-Aβ42 peptide (23526) from Anaspec; amyloid-β 42 with carboxyfluorescein at the N-terminal region
- Aβ42 accumulated after 8 h of warming [1]: small amount
- co-localization of intracellular accumulated Aβ42 with LysoTracker ([2]; 500 nM FAM-Aβ42, 37°C, 24, 48 and 72 h, N2a-mLRP4, increased over time): highly co-localized with LysoTracker
- localization of Aβ42 into LysoTracker-positive organelles ([2]; 500 nM FAM-Aβ42, 37°C, 48 and 72 h, both N2a-pcDNA3 and N2a-mLRP4 cells): increased localization
- localization of cell-associated FAM-Aβ42 into acidic organelles (LysoTracker) ([2]; 500 nM FAM-Aβ42, 37°C, 24 h, 100 nM LysoTracker Red last 30 min, N2a-mLRP4): does not localize into acidic organelles
